Bounds are passed on as bounds.

As a reminder, the Ki is the equilibrium dissociation constant of an inhibitor or competing ligand from its target. Low values mean tighter binding, high ones weaker binding.

In one assay the target is T1, Botulinum neurotoxin type A (Clostridium botulinum, UniProt P0DPI0). Briefly: Inhibition of Clostridium botulinum BoNT/A light chain (1 to 429 amino acid) using Abz-Thr-dArg-Ile-Asp-Glu-Ala-Asn-Gln-Arg-Ala-Thr-Lys-Nle-Lys(Dnp)-NH2 as substrate after 10 mins by FRET assay.
T1 sequence (P0DPI0 2-448 limits assumed): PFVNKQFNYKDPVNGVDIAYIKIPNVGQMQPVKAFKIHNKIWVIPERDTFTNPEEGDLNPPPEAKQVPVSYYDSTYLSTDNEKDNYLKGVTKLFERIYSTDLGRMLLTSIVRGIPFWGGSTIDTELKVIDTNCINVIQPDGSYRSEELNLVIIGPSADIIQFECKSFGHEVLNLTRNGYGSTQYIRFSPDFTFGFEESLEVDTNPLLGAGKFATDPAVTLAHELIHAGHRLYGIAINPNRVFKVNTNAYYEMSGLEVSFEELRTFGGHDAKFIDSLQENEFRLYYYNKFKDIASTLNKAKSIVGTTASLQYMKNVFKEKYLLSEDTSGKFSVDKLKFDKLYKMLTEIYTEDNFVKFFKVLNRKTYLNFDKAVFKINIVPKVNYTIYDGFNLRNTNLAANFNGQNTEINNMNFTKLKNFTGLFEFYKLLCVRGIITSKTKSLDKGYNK
`O=C(CCN1C(=O)c2ccccc2C1c1c[nH]c2ccccc12)NO` (stereo not given): the affinity corresponds to a Ki of 194 µM. `Cc1nnc(SCC(=O)NO)n1Cc1ccccc1`: the Ki was > 300 µM.

On to `Cc1cc(C(=O)NC(Cc2c[nH]c3ccccc23)C(=O)NO)c(C)o1` (stereo not given), for which the Ki is > 300 µM. As for `O=C(CC1SC(N2CCCC2)=NC1=O)NO` (stereo not given), the Ki is > 300 µM.

On to `Cc1nc(C)c(CCC(=O)NO)c(=O)[nH]1`, for which the Ki was > 300 µM.

As for `NC(=O)C1CC(C(=O)NO)=NN1c1ccccc1` (stereo not given), the Ki is > 300 µM. `O=C(Cc1nc(-c2cccnc2)sc1-c1ccc(Cl)cc1)NO`: the Ki is > 300 µM.

With `Cc1ccc(C(=O)NC(Cc2c[nH]c3ccccc23)C(=O)NO)o1` (stereo not given), the Ki was > 300 µM. In turn, `O=C(NC(Cc1c[nH]c2ccccc12)C(=O)NO)c1ccc(F)cc1` (stereo not given) returned a Ki of 212 µM. `O=C(Cn1nc(Cc2ccccc2)c2ccccc2c1=O)NO`: the Ki came out at 93 µM. As to `O=C(NO)c1cccc(-c2ccc(CNCC3CCCO3)o2)c1` (stereo not given), the Ki is > 300 µM. Take `O=C(NC(Cc1ccccc1)C(=O)NO)C1CCCCC1` (stereo not given): the Ki is > 300 µM. For the compound `O=C(COc1ccccc1)NC(Cc1ccccc1)C(=O)NO` (stereo not given), the Ki was > 300 µM. `Cc1ccc(OCC(=O)NC(Cc2ccccc2)C(=O)NO)cc1` (stereo not given): the Ki was > 300 µM.

As for `COc1ccc(CN2CCNC(=O)C2CC(=O)NO)cc1OC` (stereo not given), the Ki is > 300 µM. The compound `Cc1ccc(CN(CC(=O)NO)S(=O)(=O)c2ccccc2)cc1` showed a Ki of 142 µM. Turning to `COc1ccccc1-c1cc(C(=O)NO)[nH]n1`, the Ki is > 300 µM.

Turning to `O=C(CCC(=O)N(c1ccccc1)c1ccccc1)NO`, the Ki is > 300 µM.

For `CCCCOc1ccccc1-c1cc(C(=O)NO)[nH]n1`, the Ki was > 300 µM.

As for `CCC(C)C(C(=O)NO)N1C(=O)c2ccccc2C1=O` (stereo not given), the Ki stood at 188 µM. In the case of `O=C(CC1Sc2ccccc2NC1=O)NO` (stereo not given), the Ki was > 300 µM.

Compound `O=C(CNC(=O)c1ccc2noc(-c3ccccc3)c2c1)NO` gave an inhibition constant Ki of 77 µM. On to `O=C(NC(Cc1c[nH]c2ccccc12)C(=O)NO)c1ccc(Cl)s1` (stereo not given), for which the Ki was > 300 µM.

`Cc1[nH]c2ccccc2c1C1c2ccccc2C(=O)N1CC(=O)NO` (stereo not given) returned a Ki of 142 µM. Turning to `O=C(CC1C(=O)NCCN1C/C=C/c1ccccc1)NO` (stereo not given), the Ki is > 300 µM.

On to `Cc1nnc(SCc2ccccc2C(=O)NO)n1C`, for which the Ki was > 300 µM. As for `O=C(CN1C(=O)c2ccccc2C1c1c[nH]c2ccccc12)NO` (stereo not given), the Ki is > 300 µM. For `O=C(NO)c1ccccc1-c1ccccc1C(=O)Nc1ccccn1`, the Ki turned out to be 21 µM.

With `O=C(NC(Cc1c[nH]c2ccccc12)C(=O)NO)c1ccco1` (stereo not given), the Ki was > 300 µM.

The target in the next assay is T1, Botulinum neurotoxin type A.
`O=C(CN(Cc1ccccc1)Cc1ccccc1)NO` returned a Ki of 90 µM.

The record behind these values is ChEMBL document CHEMBL2375245, “Virtual medicinal chemistry: in silico pre-docking functional group transformation for discovery of novel inhibitors of botulinum toxin serotype A light chain” (Bioorg Med Chem Lett, 2013).
